The text below walks through data of ChEMBL document CHEMBL1201862, “PubChem BioAssay data set” (2004).

As a reminder, the pIC50 is the negative decadic logarithm of the IC50, by convention in mol/L. Read a low pIC50 as a high IC50. For orientation: AC50 means the concentration giving half of the maximal activity seen.

Assay [1] deals with T1, Kappa-type opioid receptor (Homo sapiens, UniProt P41145). The class given is functional.
Assay [2] addresses T1, Kappa-type opioid receptor. Format: functional. This is another data set of the same source.
For assay [3], the target named is Voltage-dependent T-type calcium channel subunit alpha-1H (Homo sapiens, UniProt O95180). Format: functional.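 Note: channel activity triggered by adding a high calcium stimulation buffer.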
For assay [4], the target named is Beta-galactosidase (Escherichia coli, UniProt Q8VNN2). The class given is functional.
The subject of assay [5] is Trypanosoma cruzi. The assay can be described thus: anti-trypanosomal activity in host cells – cell-based, plate reader, dry powder, set 3, dose response (AID 493197). The class given is functional.
Assay [6] can be described thus: T. cruzi infection blockers in NIH3T3 cells – beta-gal luminescence, NIH3T3 host cells, confirmation (AID 2630). Format: functional, cell-based. The settings on record: Mus musculus.
Assay [7] concerns the target T2, Corticotropin-releasing factor receptor 2/Corticotropin-releasing factor-binding protein (Homo sapiens, UniProt P24387+Q13324).
T2 sequence (Q13324 whole entry): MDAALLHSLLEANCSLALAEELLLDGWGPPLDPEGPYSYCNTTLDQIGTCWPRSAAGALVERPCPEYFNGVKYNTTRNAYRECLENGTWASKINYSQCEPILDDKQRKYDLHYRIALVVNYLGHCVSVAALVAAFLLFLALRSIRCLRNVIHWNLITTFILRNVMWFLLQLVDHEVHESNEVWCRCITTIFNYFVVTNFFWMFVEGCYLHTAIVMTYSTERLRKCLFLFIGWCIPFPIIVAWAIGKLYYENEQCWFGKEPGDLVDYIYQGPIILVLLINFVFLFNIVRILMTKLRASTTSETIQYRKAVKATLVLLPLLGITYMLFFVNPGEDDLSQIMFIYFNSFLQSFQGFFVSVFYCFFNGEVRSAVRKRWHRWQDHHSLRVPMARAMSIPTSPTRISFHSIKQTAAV
T2 sequence (P24387 whole entry): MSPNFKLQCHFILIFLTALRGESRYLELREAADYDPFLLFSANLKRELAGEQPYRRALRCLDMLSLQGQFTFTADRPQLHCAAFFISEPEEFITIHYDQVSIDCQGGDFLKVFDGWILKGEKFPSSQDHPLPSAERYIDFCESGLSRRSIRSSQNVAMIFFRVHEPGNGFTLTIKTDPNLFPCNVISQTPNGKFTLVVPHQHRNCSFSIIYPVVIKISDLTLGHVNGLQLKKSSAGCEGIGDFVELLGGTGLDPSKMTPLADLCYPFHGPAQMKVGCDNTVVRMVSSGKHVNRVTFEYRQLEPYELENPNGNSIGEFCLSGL
The assay can be described thus: activators of CRF receptor 2 with binding protein – uHTS hits, confirmation (AID 602473). The class given is functional. Particulars: read-out: EC50_Mean.

The target of assay [8] is T2, Corticotropin-releasing factor receptor 2/Corticotropin-releasing factor-binding protein. The assay can be described thus: Dose Response confirmation of uHTS hits for small molecule antagonists of the CRF-binding protein and CRF-R2 receptor complex. The class given is functional. The settings on record: read-out: IC50_Mean.
Assay [9] concerns the target Cyclin-dependent kinase 5/CDK5 activator 1 (Homo sapiens, UniProt Q00535). The assay can be described thus: blockade of human CDK5 activity – biochemical, cherry-picked samples, set 2, dose response (AID 504545).
In assay [10] the target is DNA dC->dU-editing enzyme APOBEC-3A (Homo sapiens, UniProt P31941). The assay can be described thus: A3A deaminase inhibition for selectivity – biochemical, dose response (AID 504722). The class given is functional.
The target in assay [11] is DNA dC->dU-editing enzyme APOBEC-3G (Homo sapiens, UniProt Q9HC16). The assay can be described thus: Dose Response confirmation of small molecule APOBEC3G DNA Deaminase Inhibitors via a fluorescence-based single-stranded DNA deaminase assay. [Related pubchem assays (depositor defined):AID493012, AID493028]. The class given is functional.

pIC50: −log10 of the molar value. Activity calls are given as the source filed them. Bounds are passed on as bounds.

T1 sequence (P41145 whole entry): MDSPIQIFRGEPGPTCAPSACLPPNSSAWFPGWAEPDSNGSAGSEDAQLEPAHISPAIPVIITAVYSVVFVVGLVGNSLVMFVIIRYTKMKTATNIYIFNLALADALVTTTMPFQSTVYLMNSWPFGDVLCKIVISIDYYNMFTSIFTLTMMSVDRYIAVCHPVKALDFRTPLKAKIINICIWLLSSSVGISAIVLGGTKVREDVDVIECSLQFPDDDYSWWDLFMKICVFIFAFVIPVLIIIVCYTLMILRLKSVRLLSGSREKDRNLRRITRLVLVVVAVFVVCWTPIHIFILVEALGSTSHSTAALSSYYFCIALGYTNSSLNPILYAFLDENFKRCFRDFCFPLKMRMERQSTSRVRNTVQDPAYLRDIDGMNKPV
Chain of Cyclin-dependent kinase 5/CDK5 activator 1 (Q00535 whole entry): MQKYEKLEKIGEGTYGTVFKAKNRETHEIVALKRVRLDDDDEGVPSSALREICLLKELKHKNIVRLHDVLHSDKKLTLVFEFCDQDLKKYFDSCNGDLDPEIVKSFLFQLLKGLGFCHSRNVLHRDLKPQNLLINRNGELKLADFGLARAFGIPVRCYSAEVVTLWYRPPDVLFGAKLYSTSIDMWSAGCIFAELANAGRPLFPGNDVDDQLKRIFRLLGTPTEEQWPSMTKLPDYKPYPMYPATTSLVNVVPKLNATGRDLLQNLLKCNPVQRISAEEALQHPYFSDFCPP
Chain of Cyclin-dependent kinase 5/CDK5 activator 1 (Q15078 whole entry, further chain): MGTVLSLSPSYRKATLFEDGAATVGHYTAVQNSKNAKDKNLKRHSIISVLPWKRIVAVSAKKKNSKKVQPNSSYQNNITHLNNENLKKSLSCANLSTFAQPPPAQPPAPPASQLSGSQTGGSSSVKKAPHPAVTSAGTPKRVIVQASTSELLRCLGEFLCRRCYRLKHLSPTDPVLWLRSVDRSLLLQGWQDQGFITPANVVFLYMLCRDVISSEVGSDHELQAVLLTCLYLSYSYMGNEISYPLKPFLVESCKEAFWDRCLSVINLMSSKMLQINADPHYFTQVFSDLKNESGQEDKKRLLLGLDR
Chain of Beta-galactosidase (Q8VNN2 whole entry): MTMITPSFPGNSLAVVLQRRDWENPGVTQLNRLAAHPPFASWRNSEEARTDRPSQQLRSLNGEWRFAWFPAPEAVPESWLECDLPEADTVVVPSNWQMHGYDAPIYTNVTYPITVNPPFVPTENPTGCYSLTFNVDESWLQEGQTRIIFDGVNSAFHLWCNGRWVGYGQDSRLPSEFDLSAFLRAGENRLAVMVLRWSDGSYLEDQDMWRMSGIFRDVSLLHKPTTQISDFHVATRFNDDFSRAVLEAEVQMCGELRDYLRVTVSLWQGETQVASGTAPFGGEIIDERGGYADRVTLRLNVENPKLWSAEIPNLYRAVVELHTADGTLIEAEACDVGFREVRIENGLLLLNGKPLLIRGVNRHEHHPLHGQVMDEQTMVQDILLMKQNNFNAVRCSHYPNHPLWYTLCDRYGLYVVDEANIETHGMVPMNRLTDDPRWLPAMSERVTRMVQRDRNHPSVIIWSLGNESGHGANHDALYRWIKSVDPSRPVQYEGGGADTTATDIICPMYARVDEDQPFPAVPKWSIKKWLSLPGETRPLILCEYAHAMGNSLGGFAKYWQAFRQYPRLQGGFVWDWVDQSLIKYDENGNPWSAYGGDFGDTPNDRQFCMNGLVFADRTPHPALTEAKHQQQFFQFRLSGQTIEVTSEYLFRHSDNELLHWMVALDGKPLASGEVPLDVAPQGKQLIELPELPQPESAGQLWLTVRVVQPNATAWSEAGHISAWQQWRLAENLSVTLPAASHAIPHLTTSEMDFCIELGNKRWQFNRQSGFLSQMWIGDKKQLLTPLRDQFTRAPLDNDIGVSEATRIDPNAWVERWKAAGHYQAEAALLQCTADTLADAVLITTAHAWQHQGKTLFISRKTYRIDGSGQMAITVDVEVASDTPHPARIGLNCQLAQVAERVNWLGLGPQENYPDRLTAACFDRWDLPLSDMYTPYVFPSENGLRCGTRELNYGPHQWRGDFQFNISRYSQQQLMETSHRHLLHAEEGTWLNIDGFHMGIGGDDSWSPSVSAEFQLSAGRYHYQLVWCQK
Chain of DNA dC->dU-editing enzyme APOBEC-3A (P31941 whole entry): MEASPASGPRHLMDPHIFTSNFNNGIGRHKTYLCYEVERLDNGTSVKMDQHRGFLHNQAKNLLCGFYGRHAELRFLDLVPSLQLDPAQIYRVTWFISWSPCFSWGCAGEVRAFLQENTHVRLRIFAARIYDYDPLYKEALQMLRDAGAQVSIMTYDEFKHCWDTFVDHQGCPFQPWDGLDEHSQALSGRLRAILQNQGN
Chain of DNA dC->dU-editing enzyme APOBEC-3G (Q9HC16 whole entry): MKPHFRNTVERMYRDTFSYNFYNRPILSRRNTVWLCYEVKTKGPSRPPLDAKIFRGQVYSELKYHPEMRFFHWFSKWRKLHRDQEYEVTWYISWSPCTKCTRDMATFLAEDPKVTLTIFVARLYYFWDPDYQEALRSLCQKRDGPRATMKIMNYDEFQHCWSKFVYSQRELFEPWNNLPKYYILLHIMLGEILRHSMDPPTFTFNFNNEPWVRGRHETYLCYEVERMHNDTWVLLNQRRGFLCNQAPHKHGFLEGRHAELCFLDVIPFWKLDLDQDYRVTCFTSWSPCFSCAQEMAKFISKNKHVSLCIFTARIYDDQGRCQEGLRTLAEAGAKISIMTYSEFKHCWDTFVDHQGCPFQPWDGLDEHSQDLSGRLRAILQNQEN
Chain of Voltage-dependent T-type calcium channel subunit alpha-1H (O95180 whole entry): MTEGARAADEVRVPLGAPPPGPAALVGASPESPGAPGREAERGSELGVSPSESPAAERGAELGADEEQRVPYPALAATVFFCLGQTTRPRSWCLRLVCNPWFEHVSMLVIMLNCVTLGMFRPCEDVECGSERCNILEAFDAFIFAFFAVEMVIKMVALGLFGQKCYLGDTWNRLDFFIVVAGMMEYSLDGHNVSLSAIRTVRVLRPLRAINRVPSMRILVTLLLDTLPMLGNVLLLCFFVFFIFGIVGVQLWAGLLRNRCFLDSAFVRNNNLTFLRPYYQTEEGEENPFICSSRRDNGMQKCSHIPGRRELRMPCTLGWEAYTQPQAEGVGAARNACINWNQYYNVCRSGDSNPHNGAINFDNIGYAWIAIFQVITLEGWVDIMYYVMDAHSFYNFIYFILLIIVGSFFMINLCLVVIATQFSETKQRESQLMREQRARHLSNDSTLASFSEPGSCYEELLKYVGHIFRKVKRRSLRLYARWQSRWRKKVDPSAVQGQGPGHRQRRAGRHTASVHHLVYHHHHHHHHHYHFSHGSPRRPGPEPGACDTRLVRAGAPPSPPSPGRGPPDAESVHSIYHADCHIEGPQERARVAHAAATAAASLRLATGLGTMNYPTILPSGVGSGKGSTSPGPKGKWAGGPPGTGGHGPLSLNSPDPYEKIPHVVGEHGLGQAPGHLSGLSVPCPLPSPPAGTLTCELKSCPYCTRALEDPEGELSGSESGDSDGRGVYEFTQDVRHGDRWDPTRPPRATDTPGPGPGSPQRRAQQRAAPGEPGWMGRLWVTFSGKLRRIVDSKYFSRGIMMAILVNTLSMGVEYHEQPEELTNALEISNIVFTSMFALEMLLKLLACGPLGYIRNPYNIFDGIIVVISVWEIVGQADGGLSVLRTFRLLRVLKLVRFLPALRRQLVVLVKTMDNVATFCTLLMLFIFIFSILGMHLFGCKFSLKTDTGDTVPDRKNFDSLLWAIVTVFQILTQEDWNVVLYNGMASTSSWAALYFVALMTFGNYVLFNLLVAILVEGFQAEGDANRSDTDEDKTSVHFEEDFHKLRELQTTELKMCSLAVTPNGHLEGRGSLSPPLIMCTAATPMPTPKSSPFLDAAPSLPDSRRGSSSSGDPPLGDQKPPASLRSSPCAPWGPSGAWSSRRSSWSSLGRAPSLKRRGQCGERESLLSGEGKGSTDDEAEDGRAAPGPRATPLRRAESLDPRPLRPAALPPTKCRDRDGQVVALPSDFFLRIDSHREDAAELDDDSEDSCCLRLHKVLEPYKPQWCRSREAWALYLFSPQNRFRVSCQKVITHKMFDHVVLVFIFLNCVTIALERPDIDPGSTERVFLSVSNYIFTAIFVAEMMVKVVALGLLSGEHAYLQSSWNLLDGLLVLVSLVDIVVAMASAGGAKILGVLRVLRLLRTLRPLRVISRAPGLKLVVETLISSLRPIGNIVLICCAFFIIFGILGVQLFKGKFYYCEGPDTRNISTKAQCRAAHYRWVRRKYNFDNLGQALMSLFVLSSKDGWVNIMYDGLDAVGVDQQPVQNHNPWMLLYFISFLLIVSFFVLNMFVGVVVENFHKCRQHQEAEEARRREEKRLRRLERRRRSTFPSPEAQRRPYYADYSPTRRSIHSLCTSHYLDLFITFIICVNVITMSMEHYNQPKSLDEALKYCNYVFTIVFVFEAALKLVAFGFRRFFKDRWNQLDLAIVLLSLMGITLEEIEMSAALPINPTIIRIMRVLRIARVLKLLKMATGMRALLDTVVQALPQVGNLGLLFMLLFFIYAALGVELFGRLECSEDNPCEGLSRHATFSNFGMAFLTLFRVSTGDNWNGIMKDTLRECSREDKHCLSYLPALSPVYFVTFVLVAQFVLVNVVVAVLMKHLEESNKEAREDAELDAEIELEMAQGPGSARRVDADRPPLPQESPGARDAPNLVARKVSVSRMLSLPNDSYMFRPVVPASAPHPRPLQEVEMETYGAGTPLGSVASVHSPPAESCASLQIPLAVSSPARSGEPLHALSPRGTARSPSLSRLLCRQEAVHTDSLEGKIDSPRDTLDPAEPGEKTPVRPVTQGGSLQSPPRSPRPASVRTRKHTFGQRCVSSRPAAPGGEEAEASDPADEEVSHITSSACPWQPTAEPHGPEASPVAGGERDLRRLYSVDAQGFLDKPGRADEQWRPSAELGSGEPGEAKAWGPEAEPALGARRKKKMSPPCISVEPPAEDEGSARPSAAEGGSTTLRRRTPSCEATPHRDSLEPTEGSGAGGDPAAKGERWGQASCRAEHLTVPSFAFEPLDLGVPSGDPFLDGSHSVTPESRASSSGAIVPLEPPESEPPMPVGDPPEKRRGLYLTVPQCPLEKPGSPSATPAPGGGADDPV

For the compound `O=C(C1CCCN(S(=O)(=O)Cc2ccccc2)C1)N1CCC(Cc2ccccc2)CC1` (stereo unspecified), the pIC50 in assay [1] is less than 4.49. In addition, the IC50 in assay [2] is > 31.5 µM (inactive). For the same compound, the EC50 in assay [3] was 4.73 µM (active); in assay [4] it was > 31.5 µM (inactive).
With `CCN(CC)C(=O)C1CCCN(Cc2cccc(Cl)c2)C1` (stereo unspecified), the AC50 in assay [5] was 9.91 µM (active). For the same compound, the EC50 in assay [6] is 1.33 µM (active).
Consider `Nc1ccc2c(c1)C(=NO)c1ccccc1-2`, for which the EC50 in assay [7] is > 53 µM (inactive). The IC50 in [8] was > 47.1 µM (inactive). In assay [9], the AC50 is 39.9 µM (active).
As to `CN(CC(=O)Nc1nnc(S)s1)S(=O)(=O)c1cccc2cccnc12`, the IC50 in assay [10] is > 100 µM (inactive); in assay [11] it was 1.95 µM (active).
